Reference: US10660835B2, “Method for hair frizz reduction” (The Procter & Gamble Company, priority 2015, dated 2020)

Assay: DVS water uptake after soaking treatment
Details: pH 4.2, 40 deg C, at 90% RH
Protocol: The Moisture Control Material is added into a 50:50 ethanol:water solvent at a concentration of 2% w/w and mixed until completely dissolved. The solution pH is adjusted with sodium hydroxide (50% w/w) to a final pH of 4.2. The soaking solution is kept at 40 deg C. for 2 hrs until a uniform composition is obtained.
One hair switch of natural virgin brown hair is placed in 200 ml of this solution for 2 hours in an oven set at 40° C. After the 2-hour period, the hair is removed, air dried and then tested for moisture uptake using DVS. For the control experiment, a natural brown virgin hair switch of the same weight is placed in a 50:50 ethanol:water solvent and treated under identical conditions.
The % water reduction is calculated as follows: […]
Hair is soaked in active solution of pH 4.2 for different intervals of time from 10 min to 2 hrs at 40 deg C. Hair Switches are air dried and prepared for % water reduction measurement using DVS vs. control (no active).

## O=C(O)c1cc(Cl)ccc1O [5-Chlorosalicylic acid]
10 min soaking
  % water reduction vs control: 9.6%
20 min soaking
  % water reduction vs control: 14.8%
30 min soaking
  % water reduction vs control: 19%
1 hr soaking
  % water reduction vs control: 26%
2 hr soaking
  % water reduction vs control: 30%
